Measurements as given in patent publication US10160755B2 (Plexxikon Inc., priority 2015, dated 2018).

Assays:
c-Kit = c-Kit (Homo sapiens, UniProt P10721); test: c-Kit biochemical assay (per US 2007/0032519)
Procedure: The following Table 2 provides data indicating FLT3 ITD, FLT3 D835Y, and KIT biochemical activity, and BaF3 FLT3 ITD/F69L cellular inhibitory activity for exemplary compounds described in this disclosure. In the table below, activity is provided as follows: +++=0.0001<IC50<1 μM; ++=1 μM<IC50<10 μM, +=10 μM<IC50<200 μM. Assays for the biochemical activity of c-Kit and FMS were conducted according to those assays described in US Patent Application Publication number US 2007/0032519, the disclosure of which is hereby incorporated by reference in its entirety.

FLT3-ITD = molecular target: T1, FLT3-ITD (Homo sapiens, UniProt P36888); test: FLT3-ITD biochemical kinase assay (AlphaScreen)
T1 construct: FLT3-ITD; Invitrogen #PV6190
T1 sequence (P36888 1-993): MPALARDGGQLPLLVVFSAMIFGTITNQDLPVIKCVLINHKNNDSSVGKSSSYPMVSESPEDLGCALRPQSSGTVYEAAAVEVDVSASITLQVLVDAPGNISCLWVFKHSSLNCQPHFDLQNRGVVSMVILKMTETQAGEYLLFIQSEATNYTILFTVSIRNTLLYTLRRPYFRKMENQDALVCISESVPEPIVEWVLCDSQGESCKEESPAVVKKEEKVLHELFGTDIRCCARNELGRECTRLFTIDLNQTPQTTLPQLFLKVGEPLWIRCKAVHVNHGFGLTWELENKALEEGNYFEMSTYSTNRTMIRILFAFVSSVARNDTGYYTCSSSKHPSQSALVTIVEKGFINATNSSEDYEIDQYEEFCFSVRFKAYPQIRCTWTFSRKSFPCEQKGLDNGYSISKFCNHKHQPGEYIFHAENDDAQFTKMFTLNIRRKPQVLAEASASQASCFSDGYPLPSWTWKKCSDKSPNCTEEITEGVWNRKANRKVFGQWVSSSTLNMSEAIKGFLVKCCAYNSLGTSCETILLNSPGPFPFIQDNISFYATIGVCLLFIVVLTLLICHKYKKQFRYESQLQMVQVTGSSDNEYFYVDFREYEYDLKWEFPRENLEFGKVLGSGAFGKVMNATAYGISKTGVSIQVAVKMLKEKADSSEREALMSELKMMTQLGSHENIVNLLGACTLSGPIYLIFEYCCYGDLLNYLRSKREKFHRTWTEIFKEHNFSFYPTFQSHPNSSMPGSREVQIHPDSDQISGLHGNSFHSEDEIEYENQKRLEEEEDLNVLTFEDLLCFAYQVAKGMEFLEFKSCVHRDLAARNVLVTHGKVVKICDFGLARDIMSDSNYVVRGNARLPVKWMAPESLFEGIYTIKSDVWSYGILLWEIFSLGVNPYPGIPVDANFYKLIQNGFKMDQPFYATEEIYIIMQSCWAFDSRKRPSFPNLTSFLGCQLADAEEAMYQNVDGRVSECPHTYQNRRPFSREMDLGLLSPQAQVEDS
Outline: (§1)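 Compounds were tested against recombinant enzyme using AlphaScreen detection of tyrosine-phosphorylated biotin-poly(Glu4-Tyr) (30 nM final). The ATP concentration differed by construct: 10 μM for D835Y, 100 μM for ITD.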

FLT3-D835Y = molecular target: T2, FLT3-D835Y (Homo sapiens, UniProt P36888, D835Y); test: FLT3-D835Y biochemical kinase assay (AlphaScreen)
T2 construct: purchased Invitrogen PV3967
T2 sequence (P36888 27-993 D835Y): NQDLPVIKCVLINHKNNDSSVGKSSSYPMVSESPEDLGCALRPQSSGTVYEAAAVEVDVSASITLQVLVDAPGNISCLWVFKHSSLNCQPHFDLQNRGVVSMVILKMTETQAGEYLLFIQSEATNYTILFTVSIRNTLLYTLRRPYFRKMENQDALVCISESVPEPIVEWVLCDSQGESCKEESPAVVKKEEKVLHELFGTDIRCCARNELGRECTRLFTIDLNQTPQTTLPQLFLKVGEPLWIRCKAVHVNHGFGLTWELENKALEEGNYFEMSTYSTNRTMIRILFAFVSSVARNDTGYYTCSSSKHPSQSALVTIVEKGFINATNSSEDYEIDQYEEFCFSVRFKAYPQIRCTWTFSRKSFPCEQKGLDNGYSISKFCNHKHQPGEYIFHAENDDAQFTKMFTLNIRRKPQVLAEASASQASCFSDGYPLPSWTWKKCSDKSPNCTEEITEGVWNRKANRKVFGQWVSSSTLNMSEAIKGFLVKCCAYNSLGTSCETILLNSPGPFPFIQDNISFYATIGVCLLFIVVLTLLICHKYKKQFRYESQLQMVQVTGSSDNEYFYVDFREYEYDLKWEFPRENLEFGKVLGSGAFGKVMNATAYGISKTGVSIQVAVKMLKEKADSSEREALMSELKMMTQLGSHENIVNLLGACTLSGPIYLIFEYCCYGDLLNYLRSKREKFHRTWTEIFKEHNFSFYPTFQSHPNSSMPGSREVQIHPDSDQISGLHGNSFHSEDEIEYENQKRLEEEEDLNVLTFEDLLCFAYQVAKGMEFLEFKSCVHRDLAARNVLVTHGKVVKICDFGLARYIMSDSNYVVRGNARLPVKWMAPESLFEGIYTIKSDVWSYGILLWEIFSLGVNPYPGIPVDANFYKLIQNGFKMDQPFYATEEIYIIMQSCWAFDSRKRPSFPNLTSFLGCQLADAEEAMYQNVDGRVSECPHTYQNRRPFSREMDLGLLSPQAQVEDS
Outline: as §1

Sequence of c-Kit (P10721 26-976): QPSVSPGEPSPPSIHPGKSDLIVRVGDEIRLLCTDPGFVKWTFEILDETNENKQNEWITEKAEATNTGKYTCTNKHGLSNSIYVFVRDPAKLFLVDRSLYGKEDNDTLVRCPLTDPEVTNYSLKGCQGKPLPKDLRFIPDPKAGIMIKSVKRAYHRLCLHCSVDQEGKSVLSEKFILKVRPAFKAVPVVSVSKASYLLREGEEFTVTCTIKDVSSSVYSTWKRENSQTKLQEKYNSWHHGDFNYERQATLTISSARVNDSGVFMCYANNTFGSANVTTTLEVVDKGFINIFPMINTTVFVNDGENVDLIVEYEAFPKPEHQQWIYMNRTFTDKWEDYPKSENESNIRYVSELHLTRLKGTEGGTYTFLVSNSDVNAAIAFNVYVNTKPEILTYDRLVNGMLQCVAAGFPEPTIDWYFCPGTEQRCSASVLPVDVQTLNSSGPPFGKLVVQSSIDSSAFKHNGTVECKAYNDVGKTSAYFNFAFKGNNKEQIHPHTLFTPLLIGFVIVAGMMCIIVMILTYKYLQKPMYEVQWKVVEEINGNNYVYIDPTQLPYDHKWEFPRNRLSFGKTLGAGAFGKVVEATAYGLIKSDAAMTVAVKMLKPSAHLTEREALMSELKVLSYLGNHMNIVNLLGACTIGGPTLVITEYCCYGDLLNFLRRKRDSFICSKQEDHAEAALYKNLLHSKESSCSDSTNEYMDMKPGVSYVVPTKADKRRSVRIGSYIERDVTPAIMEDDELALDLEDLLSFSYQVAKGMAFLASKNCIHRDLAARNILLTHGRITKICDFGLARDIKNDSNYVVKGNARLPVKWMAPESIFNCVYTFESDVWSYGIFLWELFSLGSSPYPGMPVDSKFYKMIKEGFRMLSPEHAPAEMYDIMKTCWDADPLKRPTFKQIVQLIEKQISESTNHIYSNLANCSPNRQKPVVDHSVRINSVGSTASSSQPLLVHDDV

| IC50 (c-Kit) | IC50 (FLT3-ITD) | IC50 (FLT3-D835Y) | Structure (SMILES) |
| --- | --- | --- | --- |
| 0.0001 to 1 µM | 0.0001 to 1 µM | 0.0001 to 1 µM | CC(C)(C)n1cnc2ccc(-c3c[nH]c4ncc(-c5ccnc(F)c5)nc34)cc21 [P-384, 7-(3-tert-butylbenzimidazol-5-yl)-2-(2-fluoro-4-pyridyl)-5H-pyrrolo[2,3-b]pyrazine] |
| 1 to 10 µM | 0.0001 to 1 µM | 0.0001 to 1 µM | COc1cccc(-c2cnc3[nH]cc(-c4ccc5ncn(C)c5c4)c3c2)c1 [P-088, 5-(3-methoxyphenyl)-3-(3-methylbenzimidazol-5-yl)-1H-pyrrolo[2,3-b]pyridine] |
| 10 to 200 µM | 0.0001 to 1 µM | 0.0001 to 1 µM | Cn1cnc2ccc(-c3c[nH]c4ncc(F)cc34)cc21 [P-028, 5-fluoro-3-(3-methylbenzimidazol-5-yl)-1H-pyrrolo[2,3-b]pyridine] |
| 1 to 10 µM | 0.0001 to 1 µM | 0.0001 to 1 µM | Cc1cnc2[nH]cc(-c3ccc4nc[nH]c4c3)c2c1 [P-021, 3-(3H-benzimidazol-5-yl)-5-methyl-1H-pyrrolo[2,3-b]pyridine] |
| 10 to 200 µM | 0.0001 to 1 µM | 0.0001 to 1 µM | Cn1cnc2ccc(-c3c[nH]c4ncc(-c5cccc(S(N)(=O)=O)c5)cc34)cc21 [P-044, 3-[3-(3-methylbenzimidazol-5-yl)-1H-pyrrolo[2,3-b]pyridin-5-yl]benzenesulfonamide] |
| 10 to 200 µM | 0.0001 to 1 µM | 0.0001 to 1 µM | CS(=O)(=O)Nc1cccc(-c2cnc3[nH]cc(-c4ccc5c(c4)N(CC(F)(F)F)CCO5)c3n2)c1 [P-087, N-[3-[7-[4-(2,2,2-trifluoroethyl)-2,3-dihydro-1,4-benzoxazin-6-yl]-5H-pyrrolo[2,3-b]pyrazin-2-yl]phenyl]methanesulfonamide] |
| 0.0001 to 1 µM | 0.0001 to 1 µM |  | CC(C)(C)n1cnc2ccc(-c3c[nH]c4ncc(-c5cncc(N6CCOCC6)c5)nc34)cc21 [P-387, 4-[5-[7-(3-tert-butylbenzimidazol-5-yl)-5H-pyrrolo[2,3-b]pyrazin-2-yl]-3-pyridyl]morpholine] |
| 10 to 200 µM | 0.0001 to 1 µM |  | COc1cnc2[nH]cc(-c3ccc4ncn(C(C)C)c4c3)c2c1 [P-050, 1-isopropyl-6-(5-methoxy-1H-pyrrolo[2,3-b]pyridin-3-yl)benzimidazole] |
| 1 to 10 µM | 1 to 10 µM |  | Nc1n[nH]c2ccc(-c3c[nH]c4ncccc34)cc12 [P-006, 5-(1H-pyrrolo[2,3-b]pyridin-3-yl)-1H-indazol-3-amine] |
| 10 to 200 µM | 0.0001 to 1 µM |  | CC(C)(C)n1cnc2ccc(-c3c[nH]c4ncc(-c5cnc(Cl)nc5)nc34)cc21 [P-389, 7-(3-tert-butylbenzimidazol-5-yl)-2-(2-chloropyrimidin-5-yl)-5H-pyrrolo[2,3-b]pyrazine] |
| 1 to 10 µM | 0.0001 to 1 µM |  | CC(C)(C)n1cnc2ccc(-c3c[nH]c4ncc(-c5cncc(F)c5)nc34)cc21 [P-386, 7-(3-tert-butylbenzimidazol-5-yl)-2-(5-fluoro-3-pyridyl)-5H-pyrrolo[2,3-b]pyrazine] |
| 1 to 10 µM | 0.0001 to 1 µM |  | Cc1nn(C)cc1-c1ccc(-c2cnc3[nH]cc(-c4ccc5ncn(C(C)(C)C)c5c4)c3n2)cc1 [P-323, 7-(3-tert-butylbenzimidazol-5-yl)-2-[4-(1,3-dimethylpyrazol-4-yl)phenyl]-5H-pyrrolo[2,3-b]pyrazine] |
| 1 to 10 µM | 0.0001 to 1 µM |  | CC(C)(C)n1cnc2ccc(-c3c[nH]c4ncc(-c5cnc(NS(C)(=O)=O)nc5)nc34)cc21 [P-404, N-[5-[7-(3-tert-butylbenzimidazol-5-yl)-5H-pyrrolo[2,3-b]pyrazin-2-yl]pyrimidin-2-yl]methanesulfonamide] |
| 0.0001 to 1 µM | 0.0001 to 1 µM |  | Cc1nn(C)cc1-c1cnc2[nH]cc(-c3ccc4ncn(C(C)(C)C)c4c3)c2n1 [P-324, 7-(3-tert-butylbenzimidazol-5-yl)-2-(1,3-dimethylpyrazol-4-yl)-5H-pyrrolo[2,3-b]pyrazine] |
